Data from US20200055871A1, “ACTIVATORS OF THE RETINOIC ACID INDUCIBLE GENE "RIG-I" PATHWAY AND METHODS OF USE THEREOF” (Kineta Immuno-Oncology LLC, priority 2018, published 2020).

Legend:
[1] = test system: IRF3 signaling pathway in THP1-Lucia™ ISG cells; experiment: THP1-Lucia ISG reporter assay: induction of IRF3-dependent gene expression (secreted luciferase); assay type: cell-based, human; details: PMA-differentiated cells, 18 h after stimulation
Procedure: The compounds were evaluated in the THP1-Lucia™ ISG (interferon stimulated genes) reporter assay to determine if the compounds activate the IRF3 signaling pathway. The THP1-Lucia™ cells (InvivoGen) express the secreted luciferase (Lucia) reporter gene under the control of an IRF-inducible promoter. The reporter cell line was developed from human monocytic leukemia THP-1 cells.
(§1) The promoter was comprised of five IFN-stimulated response elements (ISRE) fused to an ISG54 minimal promoter which is unresponsive to NF-kB or AP-1 pathways. […] The IRF3-deficient THP1-Lucia™ ISG IRF3−/−reporter cell line was generated by CRISPR technology from the parent THP1-Lucia™ ISG reporter cell line.
(§2) THP1-Lucia™ ISG cells and IRF3-deficient THP1-Lucia™ ISG IRF3−/−cells were differentiated with PMA (100 ng/ml) and stimulated with compounds at the indicated concentrations (5 to 20 μM), positive control, or not treated (background). Luciferase secretion was quantified using the QUANTI-Luc luciferase assay system (InvivoGen) 18 h after stimulation. Data are shown as fold increase luciferase activity over background in Table 7 and represent the IRF3-dependent ISG54 promoter activity by the THP1-Lucia™ ISG cells in response to compounds. […] The fold increase of compounds (10 μM, *20 μM, **5 μM) induced IRF3 dependent luciferase activity is indicated as follows: “≠” indicates less than 2.4 fold increase; “+” indicates a 2.4-4.9 fold increase; “++” indicates a 5-9.9 fold increase; “+++” indicates a 10-19 fold increase; “++++” indicates a 20-39 fold increase; “+++++” indicates greater than or equal to 40 fold increase.

[2] = test system: murine CT26 colon carcinoma cells; experiment: RIG-I dependent CXCL10 secretion by CT26 cells (ELISA); assay type: cell-based; details: 10 μM compound, supernatant 24 h after stimulation
Procedure: (§3) The CT26 murine colon carcinoma cell line (ATCC) was used to evaluate the induction of CXCL10 secretion. CXCL10 is an important chemokine in tumor immune biology that recruits tumor-specific T cells to the tumor. To confirm that compound-mediated CXCL10 production was RIG-I specific, RIG-1 deficient CT2-RIG-I−/−cells were generated by Kineta Inc. using CRISPR technology.
(§4) CT26 cells were seeded at a density of 1×10^4 cells per well on a 96-well tissue culture plate in 100 μL of cell culture and cells were incubated at 37° C. and 5% CO2 for 24 hr. Next, CT26 cells were treated with compounds at the indicated concentrations. CXCL10 was quantified by ELISA from supernatants taken 24 h after compound stimulation by use of the CXCL10 Duo Set ELISA kit (Cat #DY466, R&D, Minneapolis, Minn., USA) according to the manufacturer's instructions.
(§5) CXCL10 secretion by CT26 cells in response to compounds (in an amount of 5 to 20 μM) of the present disclosure is shown in Table 8. The compound-induced CXCL10 production was RIG-I dependent, since none of the compounds mediated CXCL10 secretion in RIG-I deficient CT26 RIG-I−/−cells (about 0 pg/mL of CXCL10, or below the level of quantitation). The compounds (10 μM, *20 μM, **5 μM) are indicated in the table as follows: “≠” indicates less than 100 pg/mL; “+” indicates 100-199 pg/mL; “++” indicates 200-399 pg/mL; “+++” indicates 400-799 pg/mL; “++++” indicates 800 to 1599 pg/mL; “+++++” indicates greater than or equal to 1600 pg/ml.

[3] = test system: IRF3-deficient THP1-Lucia™ ISG IRF3−/− cells; experiment: THP1-Lucia ISG IRF3−/− reporter assay (IRF3-deficient control cells); assay type: cell-based, human; details: compound 5 to 20 μM, 18 h
Procedure: as §1, §2

[4] = test system: RIG-I deficient CT26 RIG-I−/− cells; experiment: CXCL10 secretion by RIG-I deficient CT26 RIG-I−/− cells (ELISA); assay type: cell-based, murine; details: compound 5 to 20 μM, 24 h
Procedure: as §3, §4, §5

[5] = Homo sapiens, THP1-Lucia ISG, 10 μM compound, read-out: fold increase of IRF3-dependent luciferase activity over background, THP1 ISG

Compound	fold increase of IRF3-dependent luciferase activity over background, THP1 ISG ([1]; 5 μM compound (**))	CXCL10 secretion, CT26 [2]	fold increase of luciferase activity, THP1 ISG IRF3−/− [3]	CXCL10 secretion, CT26 RIG-I−/− [4]	fold increase of IRF3-dependent luciferase activity over background, THP1 ISG ([1]; 10 μM compound)	fold induction at 10 µM [1, 5]	fold induction at 20 µM ([1]; Homo sapiens, THP1-Lucia ISG, 20 μM compound (*), read-out: fold increase of IRF3-dependent luciferase activity over background, THP1 ISG)
[N-(7-hydroxybenzo[1,2-d:3,4-d′]bis(thiazole)-2-yl)-3-(4-morpholinobutoxy)-2-naphthamide hydrochloride] [Example 44]	++** (a 5-9.9 fold increase)	+++ (400-799 pg/mL)	− (less than 0.5 fold above baseline was considered below the level of quantitation)	−			
O=C(Nc1nc2ccc3[nH]cnc3c2s1)c1cc2ccccc2cc1OCCN1CCOCC1 [Example 72, 3-[2-(morpholin-4-yl)ethoxy]-N-{3-thia-5,10,12-triazatricyclo[7.3.0.0^2,^6]dodeca-1,4,6,8,11-pentaen-4-yl}naphthalene-2-carboxamide]		+++ (400-799 pg/mL)	− (less than 0.5 fold above baseline was considered below the level of quantitation)	−	++ (a 5-9.9 fold increase)		
N-{4-methoxy-5,12-dithia-3-azatricyclo[7.3.0.0^2,^6]dodeca-1,3,6,8,10-pentaen-11-yl}-6-[2-(morpholin-4-yl)ethoxy]-1-benzothiophene-5-carboxamide [Example 67]			− (less than 0.5 fold above baseline was considered below the level of quantitation)	−			
O=C(Nc1cc2ccc3scnc3c2s1)c1cc2ccsc2cc1OCCN1CCOCC1 [Example 65, N-{5,12-dithia-3-azatricyclo[7.3.0.0^2,^6]dodeca-1,3,6,8,10-pentaen-11-yl}-6-[2-(morpholin-4-yl)ethoxy]-1-benzothiophene-5-carboxamide]		≠ (less than 100 pg/mL)	− (less than 0.5 fold above baseline was considered below the level of quantitation)		+ (a 2.4-4.9 fold increase)		
6-[2-(morpholin-4-yl)ethoxy]-N-{4-oxo-5,12-dithia-3-azatricyclo[7.3.0.0^2,^6]dodeca-1,6,8,10-tetraen-11-yl}-1-benzothiophene-5-carboxamide [Example 70]			− (less than 0.5 fold above baseline was considered below the level of quantitation)	−			
O=C(Nc1nc2ccc3scnc3c2s1)c1ccc(-c2ccccc2)cc1OCCCCN1CCOCC1 [Example 38, N-{3,10-dithia-5,12-diazatricyclo[7.3.0.0^2,^6]dodeca-1,4,6,8,11-pentaen-4-yl}-3-[4-(morpholin-4-yl)butoxy]-[1,1′-biphenyl]-4-carboxamide]		+++ (400-799 pg/mL)		−		5 to 9.9	
COc1nc2c(ccc3cc(NC(=O)c4cc5ccsc5cc4OCCCCN4CCOCC4)sc32)s1 [Example 68, N-{4-methoxy-5,12-dithia-3-azatricyclo[7.3.0.0^2,^6]dodeca-1,3,6,8,10-pentaen-11-yl}-6-[4-(morpholin-4-yl)butoxy]-1-benzothiophene-5-carboxamide]			− (less than 0.5 fold above baseline was considered below the level of quantitation)	−			
Cn1c(C(=O)Nc2nc3ccc4scnc4c3s2)cc2ccccc21 [Example 17, N-{3,10-dithia-5,12-diazatricyclo[7.3.0.0^2,^6]dodeca-1,4,6,8,11-pentaen-4-yl}-1-methyl-1H-indole-2-carboxamide]		++ (200-399 pg/mL)		−		10 to 19	
O=C(Nc1nc2ccc3scnc3c2s1)c1cc2ccccc2s1 [Example 11, N-{3,10-dithia-5,12-diazatricyclo[7.3.0.0^2,^6]dodeca-1,4,6,8,11-pentaen-4-yl}-1-benzothiophene-2-carboxamide]		++ (200-399 pg/mL)		−		2.4 to 4.9	
Cn1ccc2cc(OCCN3CCOCC3)c(C(=O)Nc3nc4ccc5scnc5c4s3)cc21 [Example 69, N-{3,10-dithia-5,12-diazatricyclo[7.3.0.0^2,^6]dodeca-1,4,6,8,11-pentaen-4-yl}-1-methyl-5-[2-(morpholin-4-yl)ethoxy]-1H-indole-6-carboxamide]			− (less than 0.5 fold above baseline was considered below the level of quantitation)	−			
O=C(Nc1nc2ccc3scnc3c2s1)c1ccc2nsnc2c1 [Example 12, N-{3,10-dithia-5,12-diazatricyclo[7.3.0.0^2,^6]dodeca-1,4,6,8,11-pentaen-4-yl}-2,1,3-benzothiadiazole-5-carboxamide]		++++ (800 to 1599 pg/mL)		−		5 to 9.9	
O=C(Nc1nc2ccc3scnc3c2s1)c1cc2ccccc2cc1OCCN1CC2CC1CO2 (stereo not shown) [Example 33, N-{3,10-dithia-5,12-diazatricyclo[7.3.0.0^2,^6]dodeca-1,4,6,8,11-pentaen-4-yl}-3-(2-{2-oxa-5-azabicyclo[2.2.1]heptan-5-yl}ethoxy)naphthalene-2-carboxamide]		++++ (800 to 1599 pg/mL)		−			10 to 19
O=C(Nc1nc2ccc3scnc3c2s1)c1ccc2cc(OCCCCN3CCOCC3)ccc2c1 [Example 39, N-{3,10-dithia-5,12-diazatricyclo[7.3.0.0^2,^6]dodeca-1,4,6,8,11-pentaen-4-yl}-6-[4-(morpholin-4-yl)butoxy]naphthalene-2-carboxamide]		++ (200-399 pg/mL)		−		5 to 9.9	
COc1nc2c(ccc3nc(NC(=O)c4cc5ccccc5cc4OCCN4CCOCC4)sc32)s1 [Example 29, N-{11-methoxy-3,10-dithia-5,12-diazatricyclo[7.3.0.0^2,^6]dodeca-1,4,6,8,11-pentaen-4-yl}-3-[2-(morpholin-4-yl)ethoxy]naphthalene-2-carboxamide]		+ (100-199 pg/mL)		−		10 to 19	
O=C(Nc1nc2ccc3scnc3c2s1)c1ccc(-c2ccccc2)cc1 [Example 21, N-{3,10-dithia-5,12-diazatricyclo[7.3.0.0^2,^6]dodeca-1,4,6,8,11-pentaen-4-yl}-[1,1′-biphenyl]-4-carboxamide]		+ (100-199 pg/mL)		−		10 to 19	
O=C(Nc1nc2ccc3scnc3c2s1)c1cc2ccccc2cc1OCCN1CCNCC1 [Example 47, N-{3,10-Dithia-5,12-diazatricyclo[7.3.0.0^2,6]dodeca-1,4,6,8,11-pentaen-4-yl}-3-[2-(piperazin-1-yl)ethoxy]naphthalene-2-carboxamide]		+ (100-199 pg/mL)		−		2.4 to 4.9	
